Assay results from US20220323406A1, “METHODS AND COMPOSITIONS FOR DIFFERENTIATING STEM CELLS” (Massachusetts Institute of Technology, priority 2019, published 2022).

Experiments:
Details in all cases: primary screen
[1] = system: ENR+CD organoids (ISC to Paneth cell differentiation); test: Primary screen: CCh-stimulated lysozyme secretion LYZ.S, 2.5-D 384-well ENR+CD organoid differentiation; format: cell-based, mouse
Description: (§1) High-throughput screening.

[2] = system: ENR+CD organoids (ISC to Paneth cell differentiation); test: Primary screen: basal (non-stimulated) lysozyme secretion LYZ.NS, 2.5-D 384-well ENR+CD organoid differentiation; format: cell-based, mouse
Description: as §1

ENR+CD organoids = test: Primary screen: ATP (CellTiter-Glo 3D, CTG) cell number/viability, 2.5-D 384-well ENR+CD organoids;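 further: compounds given at plating and again on day 3 over a 6-day differentiation from ENR+CV stem-cell-enriched precursors, ATP measured on day 6, plate median as control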

Structure (SMILES)	Dose.FC.LYZ.S ([1]; dose 0.08 uM) [log2 fold change]	Dose.FC.LYZ.S ([1]; dose 0.40 uM) [log2 fold change]	Dose.FC.LYZ.S ([1]; dose 2.00 uM) [log2 fold change]	Dose.FC.LYZ.S ([1]; dose 10.00 uM) [log2 fold change]	Dose.FC.LYZ.NS ([2]; dose 0.08 uM) [log2 fold change]	Z.LYZ.NS (standard z score) ([2]; dose 0.08 uM)	Dose.FC.LYZ.NS ([2]; dose 0.40 uM) [log2 fold change]	Z.LYZ.NS (standard z score) ([2]; dose 0.40 uM)	Dose.FC.LYZ.NS ([2]; dose 2.00 uM) [log2 fold change]	Z.LYZ.NS (standard z score) ([2]; dose 2.00 uM)	Dose.FC.LYZ.NS ([2]; dose 10.00 uM) [log2 fold change]	Z.LYZ.NS (standard z score) ([2]; dose 10.00 uM)	Dose.FC.CTG (ENR+CD organoids; dose 0.08 uM) [log2 fold change]	Z.CTG (standard z score) (ENR+CD organoids; dose 0.08 uM)	Dose.FC.CTG (ENR+CD organoids; dose 0.40 uM) [log2 fold change]	Z.CTG (standard z score) (ENR+CD organoids; dose 0.40 uM)	Dose.FC.CTG (ENR+CD organoids; dose 2.00 uM) [log2 fold change]	Z.CTG (standard z score) (ENR+CD organoids; dose 2.00 uM)	Dose.FC.CTG (ENR+CD organoids; dose 10.00 uM) [log2 fold change]	Z.CTG (standard z score) (ENR+CD organoids; dose 10.00 uM)
CC(C)CCN1c2nc(Nc3cc(F)c(O)c(F)c3)ncc2N(C)C(=O)C1C (stereo not shown) [BI-D1870]	0.162	0.158	0.008	−0.378	0.141	1.225	0.126	1.099	−0.066	−0.574	−0.285	−2.483	0.186	0.444	0.029	0.069	−0.012	−0.028	−0.700	−1.673
C/C(=C\C(=O)Nc1ccccc1C(=O)O)c1ccc2ccccc2c1 [BIBR 1532]	0.028	0.107	−0.081	−0.114	0.032	0.282	0.043	0.377	−0.013	−0.117	−0.062	−0.536	0.223	0.533	−0.047	−0.113	−0.034	−0.080	0.030	0.072
COc1ccc2c(c1)c(CC(=O)N1CCOCC1)c(C)n2C(=O)c1ccc(Cl)cc1 [BML-190]	0.060	−0.037	0.017	0.067	0.072	0.623	−0.017	−0.152	0.116	1.011	0.209	1.823	−0.003	−0.007	−0.099	−0.237	−0.106	−0.254	−0.106	−0.254
COc1ccnc2[nH]cc(C(=O)C(=O)N3CCN(C(=O)c4ccccc4)C[C@H]3C)c12 [BMS-378806]	0.159		−0.142	−0.322	0.141	1.231			−0.100	−0.870	−0.227	−1.977	0.233	0.557			−0.289	−0.691	−1.155	−2.758
Cn1c(N2CCCCS2(=O)=O)nc(C(=O)NCc2ccc(F)cc2)c(O)c1=O [BMS-707035]	0.134	0.182	0.048	0.050	0.107	0.933	0.135	1.174	0.110	0.955	0.070	0.613	0.318		0.238		0.279		0.138	
